Residues, ends and D or L forms follow the SMILES beside them.
Key:
[1] = tested on: E. coli ATCC 25922; test: MIC/MBC broth microdilution, E. coli; assay type: cell-based, Escherichia coli
In short: (§1)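 Bacteria inoculated at about 10^5 CFU/mL in BHI broth and incubated 18 h at 37 °C with serial dilutions of peptidomimetics, NCCLS microdilution format. MBC taken as lowest concentration leaving no more than 3 colonies (≥99.9% kill); MIC as lowest concentration without obvious growth (≥90% of untreated); solvent controls included.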

[2] = tested on: S. intemrdius c.i.; test: MIC/MBC broth microdilution, S. intermedius; assay type: cell-based, Staphylococcus intermedius; conditions: H2O
In short: as §1

[3] = tested on: S. pyogenes ATCC 19615; test: MIC/MBC broth microdilution, S. pyogenes; assay type: cell-based, Streptococcus pyogenes; conditions: S. pyogenes
In short: as §1

[4] = tested on: S. schleiferi c.i.; test: MIC/MBC broth microdilution, S. schleiferi; assay type: cell-based, Staphylococcus schleiferi
In short: as §1

[5] = tested on: immortalized human keratinocytes (HaCaT); test: LDH cytotoxicity test, keratinocytes; assay type: cell-based; conditions: LDH, 48 h
In short: (§2)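 Cytotoxicity as LDH release after 48 h serum-free treatment (50, 100, 150 μg/mL peptidomimetics) of 46BR.1N fibroblasts or HaCaT keratinocytes seeded at 5000 per well. Absorbance 450 nm; untreated set as 0% and Triton X-100 1% as maximal release; Mann–Whitney U test, p ≤ 0.05.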

[6] = tested on: immortalized human HaCaT keratinocytes; test: XTT cell proliferation assay, keratinocytes; assay type: cell-based
In short: (§3)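 Proliferation was read as XTT absorbance at 490 nm after 4 h of reagent incubation, following 48 or 72 h of peptide exposure in serum-free HG-DMEM (37 °C, 5% CO2). The 72 h arm included a half-medium change with second peptide dose at 48 h. Significance by Mann–Whitney U, p ≤ 0.05.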

[7] = tested on: S. aureus ATCC 43300; test: MIC/MBC broth microdilution, S. aureus; assay type: cell-based, Staphylococcus aureus; conditions: S. aureus
[8] = tested on: E. faecalis c.i.; test: MIC/MBC broth microdilution, E. faecalis; assay type: cell-based, Enterococcus faecalis
In short: as §1

[9] = tested on: human dermal fibroblast cell line (46BR.1N); test: XTT cell proliferation assay, fibroblasts; assay type: cell-based
In short: as §3

[10] = Stability / presence in human plasma; assay type: in vitro ADME; conditions: 24 h incubation at 37 °C
Procedure: Blood was drawn from healthy volunteers, and lithium/heparin holding tubes were used to remove the clot by centrifugation. The plasma was aliquoted in sterile conditions and incubated with the desired compounds for 24 h at 37 °C. The samples were prepared under sterile conditions following the previously described protocol. The samples were collected at six time points (0, 1, 2, 3, 6, and 24 h) for determining stability in water solutions, and time points of 0, 10, 20, 30, 40, 50, and 60 min, as well as of 2, 3, 6, and 24 h, for determining stability in human plasma. The analysis was performed by HPLC using a Kromasil C8 column (5 μm, 90 Å, 1.0 mm × 250 mm) monitored by a PDA or ELDS-LT II detector. For quantification, peak areas were compared to a calibration curve calculated by Shimadzu LCsolution Software (Kyoto, Japan). Graphs were prepared in GraphPad Prism (Boston, USA).

[11] = tested on: P. vulgaris ATCC 6896; test: MIC/MBC broth microdilution, P. vulgaris; assay type: cell-based, Proteus vulgaris
In short: as §1

[12] = tested on: K. pneumoniae ATCC 700603; test: MIC/MBC broth microdilution, K. pneumoniae; assay type: cell-based
In short: as §1

[13] = tested on: fibroblasts (46BR.1N); test: LDH cytotoxicity test, fibroblasts; assay type: cell-based; conditions: LDH, 48 h
In short: as §2

[14] = tested on: S. mutans c.i.; test: MIC/MBC broth microdilution, S. mutans; assay type: cell-based, Streptococcus mutans
In short: as §1

[15] = tested on: S. cohnii c.i.; test: MIC/MBC broth microdilution, S. cohnii; assay type: cell-based, Staphylococcus cohnii
In short: as §1

[16] = tested on: P. aeruginosa ATCC 10145; test: MIC/MBC broth microdilution, P. aeruginosa; assay type: cell-based
In short: as §1

[17] = A-196 0.01–10 μg/mL, A-219 above 0.1 μg/mL, A-213 lower concentrations
[18] = up to 150 μg/mL, A-193 and A-179 after 48 h

CC(C)C[C@H](NC(=O)[C@H](CCCNC(=N)N)NC(=O)OCc1ccccc1)C(=O)N[C@H](C(=O)NCCc1ccccc1)C(C)C [Compound A-196] (HELM PEPTIDE1{[O=C(OCc1ccccc1)[*:2]].R.L.V.[c1ccc(CCN[*:1])cc1]}$$$$V2.0)
32 µg/mL: MIC [2] | MBC ([4]; water additive EtOH) | MIC ([14]; water additive DMSO)
up to 50%: antiproliferative effect (decrease vs control) [6, 18] | antiproliferative effect (decrease vs control) [9, 18]
5–20%: pro-proliferative effect above control [6, 17] | pro-proliferative effect above control [9, 17]
> 512 µg/mL: MIC ([1]; H2O) | MIC ([1]; water additive DMSO) | MIC ([1]; water additive EtOH) | MIC ([8]; H2O) | MIC ([8]; water additive DMSO) | MBC ([8]; water additive EtOH) | MIC ([11]; H2O) | MIC ([11]; water additive DMSO) | MIC ([11]; water additive EtOH) | MIC ([12]; H2O) | MIC ([12]; water additive DMSO) | MIC ([12]; water additive EtOH) | MIC ([16]; H2O) | MIC ([16]; water additive DMSO) | MIC ([16]; water additive EtOH)
16 µg/mL: MBC ([4]; H2O) | MIC ([4]; H2O) | MBC ([4]; water additive DMSO) | MIC ([4]; water additive DMSO) | MIC ([4]; water additive EtOH)
85–90%: present in human plasma [10]
150 µg/mL: concentration at which cytotoxic effect starts [5] | concentration at which cytotoxic effect starts [13]
256 µg/mL: MBC ([3]; water additive DMSO) | MBC ([3]; water additive EtOH) | MBC ([7]; H2O) | MBC ([7]; water additive DMSO) | MBC ([14]; H2O) | MBC ([15]; water additive DMSO) | MBC ([15]; water additive EtOH)
512 µg/mL: MIC ([8]; water additive EtOH)

Reference: publication PMC12332667, “Role of Structural Modifications in Peptidomimetic Compounds as Potential Antimicrobial Agents against Staphylococcus aureus and Streptococcus pyogenes: Balancing Bioavailability, Safety, and Antimicrobial Activity” (ACS Omega, 2025)
